From US20140235502A1, “METHOD FOR SCREENING AND QUANTIFYING ISOPRENE BIOSYNTHESIS ENZYME ACTIVITY” (Institute of Bioscience and Biotechnology, priority 2013, published 2014)

B1: IspSm2: mutant IspSm1 containing L35R (SEQ ID NO: 8), screened from random mutant library (protein)
chain: MACSVSTENVSFTETETETRRSANYEPNSWDYDYRLSSDTDESIEVYKDKAKKLEAEVRREINNEKAEFLTLLELIDNVQRLGLGYRFESDIRRALDRFVSSGGFDAVTKTSLHATALSFRLLRQHGFEVSQEAFSGFKDQNGNFLENLKEDIKAILSLYEASFLALEGENILDEAKVFAISHLKELSEEKIGKDLAEQVNHALELPLHRRTQRLEAVLSIEAYRKKEDADQVLLELAILDYNMIQSVYQRDLRETSRWWRRVGLATKLHFARDRLIESFYWAVGVAFEPQYSDCRNSVAKMFSFVTIIDDIYDVYGTLDELELFTNAVERWDVNAIDDLPDYMKLCFLALYNTINEIAYDNLKEKGENILPYLTKAWADLCNAFLQEAKWLYNKSTPTFDDYFGNAWKSSSGPLQLVFAYFAVVQNIKKEEIENLQKYHDIISRPSHIFRLCNDLASASAEIARGETANSVSCYMRTKGISEELATESVMNLIDETWKKMNKEKLGGSLFAKPFVETAINLARQSHCTYHNGDAHTSPDELTRKRVLSVITEPILPFER
modifications: IspSm2

Key:
[1] = test system: IspGESS artificial genetic circuit (TbuT regulator); assay: Quantitative fluorescence response of pIspGESS-containing recombinant E. coli to added compounds (FACS); assay type: cell-based, E. coli DH5α; conditions: for response of IspGESS fluorescence to the compound: 0-2000 μM, FACS; for concentration from which fluorescence started to be sensed: pIspGESS in E. coli DH5α, M9 medium, 30° C. 18 hours, FACS FL1-H
Description: In order to examine the isoprene, toluene, benzene and phenol compounds sensing function of pIspGESS-containing recombinant E. coli, pIspGESS of Example 1 was introduced into a single colony of E. coli DH5α (NEB, USA) by heat shock, and then the E. coli colony was inoculated into an LB liquid medium (1% (w/v) trypton, 0.5% (w/v) yeast extract, and 1% (w/v) sodium chloride) supplemented with 50 μg/Ml of ampicillin and was cultured with shaking at 37° C. for 14 hours. The culture was inoculated into M9 minimal medium (containing 50 μg/Ml ampicillin, 4% glucose and 1% thiamine) at a concentration of 1% and then cultured with shaking at 37° C. for 6 hours. Various concentrations (0-2000 μM) of isoprene was added to each of the test tubes containing the culture broth, after then the culture was cultured with shaking at 30° C. for 18 hours, thereby inducing the expression of fluorescence in the culture. The intensity of intracellular fluorescence induced by each concentration of toluene was analyzed by a FACS Calibur system (Becton Dickinson, USA). As a detector, a FSC, SSC, FL1-H (excitation=488 nm, emission=530/30 nm) detector was set, and data obtained by observing 10,000 samples were analyzed using CellQuest Pro (Becton Dickinson, USA).

[2] = test system: IspGESS artificial genetic circuit; assay: Detection of isoprene synthase activity with IspGESS, pCDF vector (FACS); assay type: cell-based; conditions: E. coli BL21(DE3), FACS 10,000 cells
Description: First, the IspSm1 gene was inserted into the NcoI-AvrII restriction enzyme site of a pCDF-duet vector (Novagen, USA) to prepare pCDF-IspSm1, which was then introduced into an E. coli BL21 (DE3) strain (NEB, USA) containing pIspGESS of […] of ampicillin and 10 μg/Ml of streptomycin were added to LB liquid medium containing 0.1 mM of IPTG (isopropyl-thio-β-Dgalactopyranoside), and E. coli cells were cultured with shaking in the LB liquid medium at 37° C. for 16 hours. Then, the cultured cells were transferred into M9 liquid medium containing 0.1 mM IPTG and were cultured at 28° C. and 200 rpm for 20 hours. […] The intensity of fluorescence in the cultured cells was analyzed using a FACS Calibur system (Becton Dickinson, USA). As a detector, a FSC, SSC, FL1-H (excitation=488 nm, emission=530/30 nm) detector was set, and data obtained by observing 10,000 samples were analyzed.
As a result, 5×10^5 of mutant library was constructed. […] With the criterion for screening, cells showing fluorescence intensity which is at least 50% higher than that of IspSm1 were sorted using a FACScalibur system (Becton Dickinson, USA). Then, 6 clones having higher fluorescence intensity than IspSm1 were isolated.
The activities of the isolated clones were analyzed by a FACS. As detectors, FSC, SSC, FL1-H (excitation=488 nm, emission=530/30 nm) detectors were set, and 10,000 cells were analyzed.

[3] = test system: IspGESS artificial genetic circuit; assay: Detection of isoprene synthase activity with IspGESS, pPROLar vector (FACS, t-test); assay type: cell-based; conditions: E. coli DH5α
Description: First, IspSm1 and IspSm2 genes were amplified using PCR with primers (SEQ ID NOS: 13, 14), and inserted into the NdeI-XbaI restriction enzyme site of a pPROLar vector for pPROLar-ispSm1 and pPROLar-ispSm2 (SEQ ID NOS: 15, 16). Then these two vectors were transformed into an E. coli DH5α strain containing IspGESS of Example 1. 50 μg/Ml of ampicillin and 10 μg/Ml of kanamycin were added to LB liquid medium, and E. coli cells were cultured with shaking in the LB liquid medium at 37° C. for 16 hours. 4 Ml of the culture medium was placed in a 10 Ml vial and the cultured bacterial strain was then inoculated at a concentration of 1%. Then, the vial was sealed with a septum and the cells were cultured at 28° C. and 200 rpm for 24 hours. The intensity of fluorescence in the cultured cells was analyzed using a FACScalibur system (Becton Dickinson, USA). As detectors, FSC, SSC, and FL1-H (excitation=488 nm, emission=530/30 nm) detectors were set, and 10,000 samples were analyzed.
To verify the fluorescence differences of IspSm1, IspSm2 and no IspS induction control, the flow cytometry data was analyzed by t-test. The t-test compared the mean values of the fluorescence signals between the negative control (IspGESS without IspSm1 (IspSm2) induction) and the case that includes IspSm1 (IspSm2) inducer. […] Note that there are three replicates of each case (FIG. 8).

Molecule	response of IspGESS fluorescence to the compound [1]	concentration from which fluorescence started to be sensed [1]	fluorescence intensity / isoprene synthesis activity compared with IspSm1 [2]	fluorescent mean intensity compared with IspGESS with IspSm1 [3]	intensity of fluorescence compared with cells containing neither IspSm1 nor IspSm2 [3]
Cc1ccccc1 [toluene]	responded	0.5 µM	–	–	–
C=CC(=C)C [isoprene]	increased as the isoprene concentration increased	50 µM	–	–	–
c1ccccc1 [benzene]	responded	1 µM	–	–	–
Oc1ccccc1 [phenol]	responded	50 µM	–	–	–
B1	–	–	two times higher	higher	higher
